Data on 2 compounds can be found in patent publication US4783461A, “3,6-disubstituted triazolo [3,4-A]phthalazine derivatives” (Gruppo Lepetit S.p.A., priority 1983, dated 1988).

Each structure is given as a SMILES string.

The test system of one assay is rats. In words: conflict test in rats (punished responding, Vogel method as modified by Lippa). As to conditions: Rattus norvegicus, ip, 1 h, i.p., tested 60 minutes after administration, read-out: minimal effective dose (MED) significantly increasing the number of shocks versus controls. The format is in vivo. How it is done: The ability of the compounds of the present invention to increase punished responding in animals in a conflict situation, a procedure with high validity for predicting the anxiolytic effect of drugs, was assessed by testing these compounds in rats according to the method described by J. R. Vogel, B. Beer, E. D. Clody in Psychopharmacologia 21, 1-7 (1971) as modified by A. S. Lippa et al., in "Anxiolytics, Industrial Pharmacology",Vol. 3, Futura Publishing, 1979, pages 41-81. Briefly, rats are deprived for water for 48 hours and deprived of food for 20 hours prior to testing. Sixty minutes after administration of the test compound each rat is placed in an especially equipped cage. A glucose solution is available from a tap located in the rear of the cage. A constant pulsating shocking current is connected between the grid floor and the tap. Each rat is allowed 20 seconds of non-shocked drinking, then cycles of 5 seconds shock-off and 5 seconds shock-on began. During the shock-on period each lick on the tap is accompanied by shock. The number of shocks received by each animal is recorded and minimal effective doses are determined.

Assay [1] addresses rat brain benzodiazepine receptors (3H-diazepam receptor). In words: benzodiazepine-receptor binding test in vitro (inhibition of specific 3H-diazepam binding to rat brain membranes). To be noted: 3H-diazepam displacement, read-out: inhibition constant Ki (Ki = IC50/(1+C/KD)) for specific 3H-diazepam binding. The source says: The pharmacological properties of the compounds of the present invention were first investigated by submitting some representative members of this class to the benzodiazepine-receptor binding-test in vitro.

On to `COCCOCc1nn2c(-c3ccc(OC)cc3)nnc2c2ccccc12` [Example 1, 6-[(2-Methoxyethoxy)methyl]-3-(4-methoxyphenyl)-1,2,4-triazolo[3,4-a]phthalazine], for which the minimal effective dose with rats came out at 5 mg/kg. Besides, the Ki in assay [1] is 20 nM. Regarding `COc1ccc(-c2nnc3c4ccccc4c(CN4CCCC4)nn23)cc1` [Example 2, 3-(4-Methoxyphenyl)-6-[(1-pyrrolidinyl)methyl]-1,2,4-triazolo[3,4-a]phthalazine], the Ki in assay [1] turned out to be 150 nM.
